Experimental data from ChEMBL document CHEMBL1221220, “Transport and signaling via the amino acid binding site of the yeast Gap1 amino acid transceptor” (Nat Chem Biol, 2009).
Non-standard residues stand in square brackets, D forms with d. Residues, ends and D or L forms follow the SMILES beside them. *: point of attachment. pGlu = O=C1CC[C@@H](C(=O)O)N1; Bz = O=C(c1ccccc1)*; Sar = CNCC(=O)O

Target: T1, General amino-acid permease GAP1 (Saccharomyces cerevisiae) (UniProt P19145)
T1 sequence (whole entry): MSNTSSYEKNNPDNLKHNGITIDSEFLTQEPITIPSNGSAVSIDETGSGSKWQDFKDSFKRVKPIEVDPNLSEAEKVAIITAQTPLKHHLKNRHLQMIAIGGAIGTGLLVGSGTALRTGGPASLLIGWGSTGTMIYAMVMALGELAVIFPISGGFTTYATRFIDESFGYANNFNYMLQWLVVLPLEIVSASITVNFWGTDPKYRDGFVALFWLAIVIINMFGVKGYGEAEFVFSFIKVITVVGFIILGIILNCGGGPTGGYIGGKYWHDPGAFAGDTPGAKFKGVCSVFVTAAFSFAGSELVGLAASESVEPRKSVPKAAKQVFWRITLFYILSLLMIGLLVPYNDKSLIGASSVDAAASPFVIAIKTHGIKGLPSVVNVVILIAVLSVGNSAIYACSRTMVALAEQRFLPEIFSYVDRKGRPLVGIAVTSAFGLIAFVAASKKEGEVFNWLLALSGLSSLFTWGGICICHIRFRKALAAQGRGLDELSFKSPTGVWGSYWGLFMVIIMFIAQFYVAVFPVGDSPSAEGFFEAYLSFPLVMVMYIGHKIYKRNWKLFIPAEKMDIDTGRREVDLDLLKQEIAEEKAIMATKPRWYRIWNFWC
Details: sigma1278b, at 5 mM
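Further: amino acid uptake through Gap1 in nitrogen-starved wild-type yeast cells, measured after 60 s and expressed relative to L-citrulline.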
Description: Inhibition of nitrogen-starved wild type sigma1278b yeast Gap1-mediated amino acid uptake at 5 mM after 60 secs relative to L-citrulline

| Compound | inhibition [%] |
| --- | --- |
| CSCC[C@H](N)C(=O)N[C@@H](CCC(=O)O)C(=O)O (H-Met-Glu-OH) | < 15 |
| CN(CC(=O)O)C(=O)CNC(=O)CN (H-Gly-Gly-[Sar]-OH) | < 15 |
| CSCC[C@H](N)C(=O)N[C@@H](C)C(=O)O (H-Met-Ala-OH) | < 15 |
| COC(=O)CC[C@H](N)C(=O)OC | < 15 |
| CC(N)(Cc1ccccc1)C(=O)O (stereo unspecified) | < 15 |
| O=C(O)C[C@H](NC(=O)OCc1ccccc1)C(=O)O | < 15 |
| NC(=O)C(N)Cc1c[nH]c2ccccc12 (racemic) | < 15 |
| C[C@H](N)C(=O)OC(C)(C)C | < 15 |
| N[C@@H](Cc1cnc[nH]1)C(=O)NCC(=O)NCC(=O)O (H-His-Gly-Gly-OH) | < 15 |
| NCC(=O)NCC(N)=O | < 15 |
| CC(C)C[C@H](NC(=O)CNC(=O)CN)C(=O)O | < 15 |
| CSCC[C@H](NC(=O)CN)C(=O)N[C@@H](CC(C)C)C(=O)O (H-Gly-Met-Leu-OH) | < 15 |
| N[C@@H](Cc1cnc[nH]1)C(=O)N[C@@H](Cc1ccccc1)C(=O)O (H-His-Phe-OH) | < 15 |
| COC(=O)[C@@H]1C=CCN1 | < 15 |
| CC(C)[C@@H](NC(=O)CN)C(=O)O | < 15 |
| N[C@@H](Cc1ccc(O)cc1)C(=O)NCC(=O)NCC(=O)O (H-Tyr-Gly-Gly-OH) | < 15 |
| O=C(O)CNC(=O)CNC(=O)c1ccccc1 (Bz-Gly-Gly-OH) | < 15 |
| O=C(O)CNC(=O)[C@H](Cc1cnc[nH]1)NC(=O)[C@@H]1CCC(=O)N1 ([pGlu]-His-Gly-OH) | < 15 |
| C[C@H](N)C(=O)N[C@@H](Cc1c[nH]c2ccccc12)C(=O)O (H-Ala-Trp-OH) | > 30 |
| N[C@@H](Cc1ccc(O)cc1)C(=O)N[C@@H](Cc1ccc(O)cc1)C(=O)N[C@@H](Cc1ccc(O)cc1)C(=O)O (H-Tyr-Tyr-Tyr-OH) | < 15 |
| NCC(=O)N[C@@H](Cc1c[nH]c2ccccc12)C(=O)O (H-Gly-Trp-OH) | > 30 |
| NCC(=O)NCCC(=O)O | < 15 |
| CC(C)[C@@H](NC(=O)OC(C)(C)C)C(=O)O | < 15 |
| CN[C@@H](Cc1cnc[nH]1)C(=O)O | < 15 |
| CC(C)C[C@H](NC(=O)[C@@H](N)CC(C)C)C(=O)O | < 15 |
| CC(=O)N[C@@H](CC[S+](C)[O-])C(=O)O (stereo partly specified) | < 15 |

| Compound | inhibition [%] |
| --- | --- |
| CC(C)C[C@H](NC(=O)CNC(=O)c1ccccc1)C(N)=O | < 15 |
| CSCC[C@H](NC(=O)OC(C)(C)C)C(=O)O | < 15 |
| COC(=O)[C@@H](N)CO | < 15 |
| O=C(N[C@@H](CO)C(=O)O)OCc1ccccc1 | < 15 |
| NCC(=O)NCC(=O)N[C@@H](CO)C(=O)O | < 15 |
| CC(C)C[C@H](NC(=O)[C@H](CC(C)C)NC(=O)[C@@H](N)CC(=O)O)C(=O)O (H-Asp-Leu-Leu-OH) | 15 |
| CCCC(NC(=O)CN)C(=O)O (racemic) | 15 |
| CSCC[C@H](NC(=O)[C@H](Cc1ccc(O)cc1)NC(=O)[C@@H](N)CC(=O)O)C(=O)O (H-Asp-Tyr-Met-OH) | < 15 |
| COC(=O)[C@@H](N)CCSC | < 15 |
| CC[C@H](C)[C@H](NC(=O)CN)C(=O)O (H-Gly-Ile-OH) | < 15 |
| C[C@H](NC(=O)[C@@H](N)Cc1ccc(O)cc1)C(=O)N[C@@H](CCCNC(=N)N)C(=O)O (H-Tyr-Ala-Arg-OH) | < 15 |
| NC(=O)[C@@H](N)Cc1c[nH]c2ccccc12 | < 15 |
| C[C@H](N)C(=O)N[C@H](CCC(=O)O)C(N)=O (H-Ala-[dE]-NH2) | < 15 |
| CCOC(=O)C(N)Cc1c[nH]c2ccccc12 (racemic) | < 15 |
| NCC[C@H]1CC[C@H](C(=O)O)CC1 | < 15 |
| CC[C@H](C)[C@H](NC(=O)[C@H](C)N)C(=O)O (H-Ala-Ile-OH) | 15 |
| CSCC[C@H](NC(=O)[C@H](CC(C)C)NC(=O)CN)C(=O)O (H-Gly-Leu-Met-OH) | < 15 |
| CC(C)C[C@H](NC(=O)[C@@H](N)CCC(=O)O)C(=O)O (H-Glu-Leu-OH) | < 15 |
| CC(=O)NCCCC[C@H](NC(C)=O)C(=O)O | < 15 |
| C[C@@H](NC(=O)CN)C(=O)O (H-Gly-[dA]-OH) | < 15 |
| COC(=O)[C@@H](N)CC(C)C | < 15 |
| N=C(N)NCCC[C@H](NC(=O)[C@@H](N)Cc1ccccc1)C(=O)O (H-Phe-Arg-OH) | < 15 |
| CC(C)C[C@@H](N)C(=O)NCC(=O)O (H-[dL]-Gly-OH) | < 15 |
| N[C@H](CO)Cc1c[nH]c2ccccc12 | < 15 |
| N[C@@H](CC(=O)O)C(=O)N[C@@H](CO)C(=O)O (H-Asp-Ser-OH) | < 15 |
| C[C@@H](O)C(NC(=O)CN)C(=O)O (mixture of isomers) | 15 |

| Compound | inhibition [%] |
| --- | --- |
| CSCCC(NC(=O)C(C)N)C(=O)O (racemic) | < 15 |
| N[C@@H](Cc1ccco1)C(=O)O | > 30 |
| CSCC[C@H](N)C(=O)NCC(=O)NCC(=O)O (H-Met-Gly-Gly-OH) | < 15 |
| CC(C)C[C@H](NC(=O)CN)C(N)=O | < 15 |
| CC(C)[C@H](N)C(N)=O | < 15 |
| NCC(=O)NCC(=O)N[C@@H](Cc1ccccc1)C(=O)O (H-Gly-Gly-Phe-OH) | < 15 |
| CCCC(NC(=O)C(C)N)C(=O)O (racemic) | < 15 |
| CSCC[C@H](N)C(=O)NCC(=O)N[C@@H](CC(=O)O)C(=O)O (H-Met-Gly-Asp-OH) | < 15 |
| CSCC[C@H](N)C(=O)NCC(=O)O (H-Met-Gly-OH) | < 15 |
| CC(C)C[C@H](NC(=O)[C@@H](N)C(C)C)C(=O)O (H-Val-Leu-OH) | < 15 |
| COC(=O)[C@@H]1C[C@@H](O)CN1 | < 15 |
| CSCC[C@H](N)C(=O)N[C@@H](CC(=O)O)C(=O)O (H-Met-Asp-OH) | < 15 |
| CC(C)(C)OC(=O)N[C@@H](Cc1cnc[nH]1)C(=O)O | < 15 |
| CC(C)C[C@H](NC(=O)CN)C(=O)N[C@@H](Cc1ccc(O)cc1)C(=O)O (H-Gly-Leu-Tyr-OH) | < 15 |
| CC(C)(C)OC(=O)N1CCC[C@H]1C(=O)O | < 15 |
| C[C@H](NC(=O)CN)C(=O)O (H-Gly-Ala-OH) | 15 |
| N[C@@H](CO)C(=O)N[C@@H](Cc1ccc(O)cc1)C(=O)O (H-Ser-Tyr-OH) | < 15 |
| CC[C@H](C)[C@H](N)C(=O)OC | < 15 |
| CC(C)C[C@H](N)C(=O)N[C@@H](C)C(=O)O (H-Leu-Ala-OH) | < 15 |
| C[C@H](NC(=O)[C@@H](N)[C@@H](C)O)C(=O)O (H-Thr-Ala-OH) | < 15 |
| NC(=O)CC[C@H](NC(=O)[C@@H]1CCCN1)C(=O)O (H-Pro-Gln-OH) | < 15 |
| CC(=O)N[C@@H](CCC(=O)OC(C)(C)C)C(=O)O | < 15 |
| N=C(N)NCCC[C@H](NC(=O)[C@@H](N)CC(=O)O)C(=O)O (H-Asp-Arg-OH) | < 15 |
| C[C@H](N)C(=O)NCC(=O)O (racemic) | > 30 |
| CC(C)C[C@H](N)C(=O)N[C@H](C(=O)O)C(C)C (H-Leu-Val-OH) | < 15 |
| CC(C)(C)OC(=O)NC(Cc1ccc(O)cc1)C(=O)O (stereo in doubt) | < 15 |

| Compound | inhibition [%] |
| --- | --- |
| CCOC(=O)[C@@H](N)Cc1c[nH]c2ccccc12 | < 15 |
| CSCC[C@H](NC(=O)[C@@H](N)Cc1cnc[nH]1)C(=O)O (H-His-Met-OH) | 15 |
| NCC(=O)NCC(=O)N[C@@H](CCC(=O)O)C(=O)O (H-Gly-Gly-Glu-OH) | < 15 |
| N[C@@H](CCC(=O)O)C(=O)N[C@@H](CCC(=O)O)C(=O)O (H-Glu-Glu-OH) | < 15 |
| O=C(O)[C@@H]1CNCCN1 | < 15 |
| CSCC[C@H](NC(=O)[C@@H](N)CCSC)C(=O)N[C@@H](C)C(=O)O (H-Met-Met-Ala-OH) | < 15 |
| NCCCC[C@H](N)C(=O)N[C@@H](Cc1c[nH]c2ccccc12)C(=O)O (H-Lys-Trp-OH) | < 15 |
| CC(C)C[C@H](N)C(=O)N[C@@H](Cc1cnc[nH]1)C(=O)O (H-Leu-His-OH) | > 30 |
| CC(C)(C)OC(=O)N[C@@H](CCC(=O)O)C(=O)O | < 15 |
| CCCC[C@H](NC(=O)OC(C)(C)C)C(=O)O | < 15 |
| CC(C)(C)OC(=O)N[C@@H](CO)C(=O)O | < 15 |
| O=C(O)[C@@H]1C=CCN1 | < 15 |
| CSCC[C@H](NC(=O)[C@@H](N)CCSC)C(=O)O (H-Met-Met-OH) | < 15 |
| NCC(=O)N[C@@H](CO)C(=O)NCCS(=O)(=O)O | < 15 |
| CC[C@H](C)[C@H](NC(=O)CNC(=O)CN)C(=O)O (H-Gly-Gly-Ile-OH) | < 15 |
| NCCCC[C@H](NC(=O)[C@@H](N)Cc1ccc(O)cc1)C(=O)O (H-Tyr-Lys-OH) | > 30 |
| C[C@@H](O)[C@H](NC(=O)OC(C)(C)C)C(=O)O | < 15 |
| NCC(=O)NCC(=O)N1CCC[C@H]1C(=O)O (H-Gly-Gly-Pro-OH) | < 15 |
| CC[C@H](C)[C@H](NC(C)=O)C(=O)O | < 15 |
| CC(C)C[C@@H](NC(=O)OC(C)(C)C)C(=O)O | < 15 |
| NCCC(N)=O | < 15 |
| CC(C)C[C@H](N)C(=O)N[C@@H](CC(N)=O)C(=O)O (H-Leu-Asn-OH) | < 15 |
| CC(C)C[C@@H](N)CO | < 15 |
